In patent publication US9073895B2 (Boehringer Ingelheim International GmbH, priority 2010, dated 2015):

What was measured:
[1] = system: biomarkers for myocardial infarction risk; settings: clinical trial; cited from earlier work
[2] = system: synthesis of LTB4 in human whole blood; experiment: Human whole blood LTB4 production inhibition assay; type: cell-based; settings: heparinized human whole blood, calcimycin 20 μM, plasma LTB4; read-out: HuWB IC50
Procedure, shortened: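 Heparinized human whole blood was preincubated with compound for 15 min at 37° C, then stimulated with calcimycin (20 μM final, in PBS pH 7.4) for a further 30 min at 37° C. Plasma LTB4 was quantified by antibody-based homogeneous time-resolved fluorescence.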

[3] = target: T1, recombinant human FLAP protein (Homo sapiens, UniProt P20292); experiment: FLAP binding assay (SPA, displacement of [125I]L-691,831); settings: membranes of sf9 cells expressing human FLAP, [125I]L-691,831 probe; read-out: hFLAP binding IC50
T1 construct: made in house; host or cells: Sf9 insect cells (membrane fraction, 100,000 x g pellet)
T1 sequence (P20292 1-161): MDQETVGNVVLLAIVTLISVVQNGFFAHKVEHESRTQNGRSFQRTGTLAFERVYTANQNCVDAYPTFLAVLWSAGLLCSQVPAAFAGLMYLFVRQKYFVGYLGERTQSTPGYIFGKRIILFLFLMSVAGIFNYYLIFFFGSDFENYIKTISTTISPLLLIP
Procedure, shortened: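 Membranes from sf9 cells expressing human FLAP (5 μg/well) were bound to WGA SPA beads (200 μg/well). Nonspecific binding was defined with 10 μM unlabelled L-691,831.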

human glomerulonephritis = settings: clinical trial; cited from earlier work
ApoExCD4dnT RII mice = settings: infusion, treated for four weeks; cited from earlier work
[4] = system: apoE/LDL-R double knockout mice; settings: oral dosing, high-fat diet from 2 months of age to 6 months; cited from earlier work

| Compound | IC50 [2] [nM] | IC50 [3] [nM] | other results |
| --- | --- | --- | --- |
| O=C(O)[C@@H](c1ccc(OCc2ccc3ccccc3n2)cc1)C1CCCC1 [DG-031] | – | – | effect on biomarkers for myocardial infarction risk [1]: dose-dependent suppression of several biomarkers |
| CCC(C)(C(=O)Nc1ccncc1)c1ccc(-c2cnc(N)nc2)cc1 (stereo not shown) [Example 231, 2-[4-(2-aminopyrimidin-5-yl)phenyl]-2-methyl-N-(pyridin-4-yl)butanamide] | 1210 | 84 | – |
| N#Cc1ccc(NC(=O)C2(c3ccc(-c4cnc(N)nc4)cc3)CCC2)nc1 [Example 232, 1-[4-(2-aminopyrimidin-5-yl)phenyl]-N-(5-cyanopyridin-2-yl)cyclobutanecarboxamide] | 152 | 7.45 | – |
| CS(=O)(=O)c1ccc(NC(=O)C2(c3ccc(-c4cnc(N)nc4)cc3)CCC2)cc1 [Example 233, 1-[4-(2-aminopyrimidin-5-yl)phenyl]-N-[4-(methylsulfonyl)phenyl]cyclobutane-carboxamide] | 160 | 6.5 | – |
| CN1CCc2nc(NC(=O)C3(c4ccc(-c5cnc(N)nc5)cc4)CCC3)sc2C1 [Example 234, 1-[4-(2-aminopyrimidin-5-yl)phenyl]-N-(5-methyl-4,5,6,7-tetrahydro[1,3]thiazolo[5,4-c]pyridin-2-yl)cyclobutanecarboxamide] | 858 | 32.5 | – |
| Cc1nc(-c2ccc(NC(=O)C(C)(C)c3ccc(-c4cnc(N)nc4)cc3)nc2)cs1 [Example 235, 2-[4-(2-aminopyrimidin-5-yl)phenyl]-2-methyl-N-[5-(2-methyl-1,3-thiazol-4-yl)pyridin-2-yl]propanamide] | 627 | 5.4 | – |
| N#Cc1cc(NC(=O)C2(c3ccc(-c4cnc(N)nc4)cc3)CCC2)ccn1 [Example 236, 1-[4-(2-aminopyrimidin-5-yl)phenyl]-N-(2-cyanopyridin-4-yl)cyclobutanecarboxamide] | 290 | 3.45 | – |
| N#Cc1ccc(NC(=O)C2(c3ccc(-c4cnc(N)nc4)cc3)CCC2)cn1 [Example 241, 1-[4-(2-aminopyrimidin-5-yl)phenyl]-N-(6-cyanopyridin-3-yl)cyclobutanecarboxamide] | 406 | 5.6 | – |
| CN1CCN(c2cc(NC(=O)C3(c4ccc(-c5cnc(N)nc5)cc4)CCC3)ccn2)CC1 [Example 252, 1-[4-(2-aminopyrimidin-5-yl)phenyl]-N-[2-(4-methylpiperazin-1-yl)pyridin-4-yl]cyclobutanecarboxamide] | 228 | 7.4 | – |
| Nc1ncc(-c2ccc(C3(C(=O)Nc4nc(-c5cccnc5)cs4)CCC3)cc2)cn1 [Example 253, 1-[4-(2-aminopyrimidin-5-yl)phenyl]-N-[4-(pyridin-3-yl)-1,3-thiazol-2-yl]cyclobutanecarboxamide] | 270 | 1.8 | – |
| CC(C)(C)Sc1c(CC(C)(C)C(=O)O)n(Cc2ccc(Cl)cc2)c2ccc(OCc3ccc4ccccc4n3)cc12 [MK-591] | – | – | effect on proteinuria (human glomerulonephritis): reduce proteinuria |
| CC(C)c1ccc2c(c1)c(SC(C)(C)C)c(CC(C)(C)C(=O)O)n2Cc1ccc(Cl)cc1 [MK-886] | – | – | decrease in plaque area in the aortic root (ApoExCD4dnT RII mice): ~40%; decrease in plaque coverage in the aorta [4]: 56%; decrease in plaque coverage in the aortic root [4]: 43% |

Further compounds by falling IC50 [2], results first:

| IC50 [2] [nM] | IC50 [3] [nM] | Compound | other results |
| --- | --- | --- | --- |
| 144 | 2.15 | Nc1ncc(-c2ccc(C3(C(=O)Nc4ccc(-c5cccnc5)cn4)CCC3)cc2)cn1 [Example 239, 1-[4-(2-aminopyrimidin-5-yl)phenyl]-N-(3,3'-bipyridin-6-yl)cyclobutanecarboxamide] | – |
| 144 | 2.5 | Cn1cc(-c2ccc(NC(=O)C3(c4ccc(-c5cnc(N)nc5)cc4)CCC3)nc2)cn1 [Example 255, 1-[4-(2-aminopyrimidin-5-yl)phenyl]-N-[5-(1-methyl-1H-pyrazol-4-yl)pyridin-2-yl]cyclobutanecarboxamide] | – |
| 111 | 1.6 | Nc1ncc(-c2ccc(C3(C(=O)Nc4nc(-c5ccncc5)cs4)CCC3)cc2)cn1 [Example 254, 1-[4-(2-aminopyrimidin-5-yl)phenyl]-N-[4-(pyridin-4-yl)-1,3-thiazol-2-yl]cyclobutanecarboxamide] | – |
| 74.5 | 2.35 | Nc1ncc(-c2ccc(C3(C(=O)Nc4ccc(-c5ccncc5)cn4)CCC3)cc2)cn1 [Example 238] | – |
| 60.8 | 3.2 | N#Cc1ccc(NC(=O)C2(c3ccc(-c4cnc(N)nc4)cc3)CCC2)cc1 [Example 250, 1-[4-(2-aminopyrimidin-5-yl)phenyl]-N-(4-cyanophenyl)cyclobutanecarboxamide] | – |
| 46 | 3.3 | Nc1ncc(-c2ccc(C3(C(=O)Nc4ccc(N5CCOCC5)c(Cl)c4)CCC3)cc2)cn1 [Example 245, 1-[4-(2-aminopyrimidin-5-yl)phenyl]-N-[3-chloro-4-(morpholin-4-yl)phenyl]cyclobutanecarboxamide] | – |
| 43 | 1.9 | CCOC(=O)c1ccc(NC(=O)C2(c3ccc(-c4cnc(N)nc4)cc3)CCC2)nc1 [Example 237, ethyl 6-[({1-[4-(2-aminopyrimidin-5-yl)phenyl]cyclobutyl}carbonyl)amino]pyridine-3-carboxylate] | – |
